Values joined by “and” are separate entries in the source; they are usually repeats but may differ in a detail not shown here. Equal entries are not always repeated.
Experiments:
[1] = target: T1, human recombinant adrenergic α2B receptor (Homo sapiens, UniProt P18089); test: Radioligand binding, adrenergic α2B ([3H]Rauwolscine); conditions: for Percentage inhibition of ligand binding, Adrenergic α2B (0.03 μM): compound at 0.03 μM; for Percentage inhibition of ligand binding, Adrenergic α2B: 0.03 μM compound; for Percentage inhibition of ligand binding, Adrenergic α2B (0.03 μM) / Percentage inhibition of ligand binding, Adrenergic α2B: 0.03 µM
T1 construct: expressed in transfected cells; host or cells: CHO-K1
T1 sequence (P18089 1-450): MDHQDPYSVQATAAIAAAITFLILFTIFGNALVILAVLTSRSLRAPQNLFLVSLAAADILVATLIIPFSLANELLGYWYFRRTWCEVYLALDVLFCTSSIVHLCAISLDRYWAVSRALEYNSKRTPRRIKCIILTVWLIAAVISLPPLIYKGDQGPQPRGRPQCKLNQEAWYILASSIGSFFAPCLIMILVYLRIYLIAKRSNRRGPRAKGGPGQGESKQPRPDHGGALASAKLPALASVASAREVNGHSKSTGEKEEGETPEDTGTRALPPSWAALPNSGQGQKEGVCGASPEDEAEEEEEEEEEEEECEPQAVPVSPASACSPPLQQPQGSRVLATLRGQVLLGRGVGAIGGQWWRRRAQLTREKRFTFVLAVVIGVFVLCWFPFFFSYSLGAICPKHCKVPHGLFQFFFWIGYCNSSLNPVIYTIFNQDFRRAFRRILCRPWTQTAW
Summary of the method: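 Membranes from CHO-K1 cells expressing human recombinant α2B, in 50 mM Tris-HCl pH 7.4, 12.5 mM MgCl2, 1 mM EDTA, 0.2% BSA, incubated with compound and 2.5 nM [3H]Rauwolscine, 60 min, 25 °C.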

[2] = target: T2, human recombinant adrenergic α2A receptor (Homo sapiens, UniProt P08913); test: Radioligand binding, adrenergic α2A ([3H]MK-912); conditions: [3H]MK-912; for Percentage inhibition of ligand binding, Adrenergic α2A (0.1 μM): compound at 0.1 μM
T2 construct: expressed in transfected cells; host or cells: insect Sf9 cells
T2 sequence (P08913 1-465): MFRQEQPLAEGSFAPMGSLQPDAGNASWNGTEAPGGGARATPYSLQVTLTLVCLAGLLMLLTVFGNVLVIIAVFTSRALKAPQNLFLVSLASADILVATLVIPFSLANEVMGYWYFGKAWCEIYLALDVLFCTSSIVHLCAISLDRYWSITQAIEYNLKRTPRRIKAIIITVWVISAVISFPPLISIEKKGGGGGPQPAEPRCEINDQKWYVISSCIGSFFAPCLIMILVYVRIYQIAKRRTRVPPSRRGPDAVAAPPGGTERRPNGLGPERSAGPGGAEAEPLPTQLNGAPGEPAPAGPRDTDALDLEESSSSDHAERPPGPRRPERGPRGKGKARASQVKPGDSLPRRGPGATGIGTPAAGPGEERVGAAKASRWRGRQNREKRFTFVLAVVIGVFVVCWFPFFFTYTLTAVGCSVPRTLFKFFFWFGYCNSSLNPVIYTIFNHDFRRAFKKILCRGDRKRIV
Summary of the method: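 In 50 mM Tris-HCl (pH 7.4) containing 12.5 mM MgCl2 and 2 mM EDTA, Sf9-expressed receptor was exposed to test compound plus 1 nM [3H]MK-912 at 25 °C for 60 min. Specific binding, corrected using 10 μM WB-4101, was quantified by filtration and counting and expressed as percent inhibition.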

[3] = target: T3, rat adrenergic α1B receptor (Rattus norvegicus, UniProt P15823); test: Radioligand binding, adrenergic α1B ([3H]Prazosin); parameters: species or system Wistar Rat; conditions: for Percentage inhibition of ligand binding, Adrenergic α1B (0.1 μM): compound at 0.1 μM
T3 construct: rat adrenergic α1B receptor obtained from Wistar Rat liver; from tissue; host or cells: Wistar rat liver
T3 sequence (P15823 1-515): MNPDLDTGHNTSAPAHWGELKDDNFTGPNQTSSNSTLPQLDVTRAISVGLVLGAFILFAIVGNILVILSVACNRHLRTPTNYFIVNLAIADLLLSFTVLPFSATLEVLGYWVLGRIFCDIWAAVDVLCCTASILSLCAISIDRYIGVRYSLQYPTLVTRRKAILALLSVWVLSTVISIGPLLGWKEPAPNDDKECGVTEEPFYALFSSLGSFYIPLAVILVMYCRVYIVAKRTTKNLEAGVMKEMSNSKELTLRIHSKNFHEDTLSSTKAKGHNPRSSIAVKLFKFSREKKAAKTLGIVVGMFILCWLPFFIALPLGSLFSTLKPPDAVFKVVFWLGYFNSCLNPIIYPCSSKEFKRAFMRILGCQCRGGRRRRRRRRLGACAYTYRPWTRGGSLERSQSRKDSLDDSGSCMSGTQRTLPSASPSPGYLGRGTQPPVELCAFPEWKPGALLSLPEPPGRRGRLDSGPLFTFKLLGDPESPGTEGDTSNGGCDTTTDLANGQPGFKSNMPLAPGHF
Summary of the method: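 Filter binding with Wistar rat liver α1B preparation: test compound plus 0.25 nM [3H]prazosin, 1 h at 25° C in modified Tris-HCl buffer pH 7.4.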

[4] = compound at 0.03 μM, repeat datapoints each shown
[5] = repeat datapoints each shown, 0.1 µM

Compound	Percentage inhibition of ligand binding, Adrenergic α2B (0.03 μM) ([1]; repeat datapoints each shown)	Percentage inhibition of ligand binding, Adrenergic α2A (0.1 μM) [2, 5]	Percentage inhibition of ligand binding, Adrenergic α1B (0.1 μM) [3, 5]	other results
CN1CCc2c(c3cc(Cl)ccc3n2CC(O)c2ccncc2)C1 (single isomer, unassigned) [4a]	99% and 103%	19% and 24%	52% and 57%	Percentage inhibition of ligand binding, Adrenergic α2B (0.1 μM) ([1]; compound at 0.1 μM, repeat datapoints each shown, 0.1 µM): 104%; Percentage inhibition of ligand binding, Adrenergic α2A (0.03 μM) [2, 4]: 5%; Percentage inhibition of ligand binding, Adrenergic α1B (0.03 μM) [3, 4]: 25%
Cc1ccc2c(c1)c1c(n2CC(O)c2cc[n+]([O-])cc2)CCN(C)C1 (single isomer, unassigned) [69a]	10%	11%	4%	
Cc1cnc2c(c1)c1c(n2CC(C)(O)c2ccc(C)nc2)CCN2CCCC12 (single isomer, unassigned) [148c]				Percentage inhibition of ligand binding, Adrenergic α2B [1]: 16%; Percentage inhibition of ligand binding, Adrenergic α2A ([2]; 0.1 μM compound, 0.1 µM): −1%; Percentage inhibition of ligand binding, Adrenergic α1B ([3]; 0.1 μM compound, 0.1 µM): 6%
Cc1ccc2c(c1)c1c(n2CC(C)(O)c2cccnc2)CNCC1 (centres unmarked) [128b]				Percentage inhibition of ligand binding, Adrenergic α2B [1]: 54%; Percentage inhibition of ligand binding, Adrenergic α2A ([2]; 0.1 μM compound, 0.1 µM): 22%; Percentage inhibition of ligand binding, Adrenergic α1B ([3]; 0.1 μM compound, 0.1 µM): 45%
Cc1ccc2c(c1)c1c(n2CC(O)c2ccncc2)CC2CCCN2C1 (single isomer, unassigned) [76a]	92%	21%	78%	
CN1CCc2c(n(CC(O)c3ccncc3)c3ccc(Cl)cc23)C1 (single isomer, unassigned) [41a]	14%	−9%	43%	
CCC1c2c(c3cc(C)ccc3n2CC(O)c2ccncc2)C2CCN1C2 (single isomer, unassigned) [36b]	−1%	0%	11%	
Cc1cnc2c(c1)c1c(n2CC(N)c2ccc(C#N)cc2)CCN(C)C1 (single isomer, unassigned) [159b]				Percentage inhibition of ligand binding, Adrenergic α2B [1]: 52%; Percentage inhibition of ligand binding, Adrenergic α2A ([2]; 0.1 μM compound): −12%; Percentage inhibition of ligand binding, Adrenergic α1B ([3]; 0.1 μM compound, 0.1 µM): 53%
Cc1cnc2c(c1)c1c(n2CC(O)c2ccc(F)cc2)CCN(C)C1 (single isomer, unassigned) [136a]				Percentage inhibition of ligand binding, Adrenergic α2B [1]: 34%; Percentage inhibition of ligand binding, Adrenergic α2A ([2]; 0.1 μM compound, 0.1 µM): 16%; Percentage inhibition of ligand binding, Adrenergic α1B ([3]; 0.1 μM compound): 54%
Cc1ccc2c(c1)c1c(n2CC(O)c2ccncc2)CC2CCCN2C1 (single isomer, unassigned) [76c]	35%	5%	33%	
CN1CCc2c(c3cccc(Br)c3n2CC(O)c2ccncc2)C1 (single isomer, unassigned) [48a]	58%	12%	16%	
Cc1ccc2c(c1)c1c(n2CC(C)(O)c2ccc(C)nc2)CN(C)CC1 (single isomer, unassigned) [196a]				Percentage inhibition of ligand binding, Adrenergic α2B [1]: 93% and 103%; Percentage inhibition of ligand binding, Adrenergic α2A ([2]; 0.03 μM compound): 37%; Percentage inhibition of ligand binding, Adrenergic α2A ([2]; 0.1 μM compound, 0.1 µM): 58% and 71%; Percentage inhibition of ligand binding, Adrenergic α1B ([3]; 0.03 μM compound): 30%; Percentage inhibition of ligand binding, Adrenergic α1B ([3]; 0.1 μM compound, 0.1 µM): 54.6%
Cc1ccc2c(c1)c1c(n2CC(O)c2cccnc2)CCN(CCO)C1 (single isomer, unassigned) [21a]	−2%	−1%	5%	
CN1CCc2c(c3cc(Cl)ccc3n2CC(C)(O)c2cccnc2)C1 (centres unmarked) [31b]	36%	14%	3%	
CN1CCc2c(c3cc(C(F)(F)F)ccc3n2CC(O)c2cccnc2)C1 (single isomer, unassigned) [59a]	15%	18%	11%	
Cc1ccc2c(c1)c1c(n2CC(O)c2cccnc2)CCN(CCO)C1 (single isomer, unassigned) [21b]	1%	−3%	−2%	
Cc1ccc2c(c1)c1c(n2CC(O)c2ccncc2)CC2CCCCN2C1 (racemic) [75b]	43%	5%	16%	
Cc1ccc2c(c1)c1c(n2CC(O)c2cc[n+]([O-])cc2)CCN(C)C1 (single isomer, unassigned) [69b]	19%	7%	8%	
CN1CCc2c(c3cc(C(F)(F)F)ccc3n2CC(O)c2cccnc2)C1 (single isomer, unassigned) [59b]	31%	12%	7%	
Cc1cnc2c(c1)c1c(n2CC(N)c2ccc(C#N)cc2)CCNC1 (single isomer, unassigned) [160b]				Percentage inhibition of ligand binding, Adrenergic α2B [1]: 41%; Percentage inhibition of ligand binding, Adrenergic α2A ([2]; 0.1 μM compound, 0.1 µM): 5%; Percentage inhibition of ligand binding, Adrenergic α1B ([3]; 0.1 μM compound, 0.1 µM): 65%
Cc1ccc2c(c1)c1c(n2C(C)C(O)c2ccncc2)CCN(C)C1 (centres unmarked) [127b]				Percentage inhibition of ligand binding, Adrenergic α2B [1]: 1%; Percentage inhibition of ligand binding, Adrenergic α2A ([2]; 0.1 μM compound): 4%; Percentage inhibition of ligand binding, Adrenergic α1B ([3]; 0.1 μM compound): 13%
Cc1ccc2c(c1)c1c(n2CC(O)c2ccncc2)CCN2CCCCC12 (single isomer, unassigned) [47b]	119%	41%	70%	
Cc1cnc2c(c1)c1c(n2CCc2ccc(C)nc2)CCN2CCCC12 (centres unmarked) [74b, 10-methyl-7-(2-(6-methylpyridin-3-yl)ethyl)-2,3,5,6,7,1c-hexahydro-1H-pyrido[3′,2′:4,5]pyrrolo[2,3-g]indolizine]	27%	14%	28%	
Cc1ccc2c(c1)c1c(n2CC(O)c2ccncc2)CC2CCCN2C1 (single isomer, unassigned) [76b]	34%	18%	71%	
